Results taken from US20230413819A1, “METHODS FOR CONTROLLING FLEA AND TICK INFESTATIONS IN A MAMMAL” (In the Bowl Animal Health, Inc., priority 2021, published 2023).

How the values were obtained:
[1] = Average plasma concentration of mivorilaner, medicated daily feed (Example 9); type: in vivo, dogs; settings: Group 4, 318 mg/kg feed (anticipated 3 mg/kg daily)
Procedure: Each dog in a treatment group (test groups 2-4) is to receive a medicated daily feed from study days 0-49. The medicated daily feed is to be offered to the dogs for 1 hour on each of days 0-49 according to test groups listed in TABLE 11.

[2] = Average plasma concentration of mivorilaner, various daily oral doses (Examples 5 and 11); type: in vivo, dogs; settings: dog, fed; for concentration at 0 h: 0 h after initial dose; for concentration at 72 h: 72 h after initial dose; for concentration at 120 h: 120 h after initial dose; for concentration at 168 h: 168 h after initial dose; for concentration at 336 h: 336 h after initial dose; for concentration at 504 h: 504 h after initial dose; for concentration at 720 h: 720 h after initial dose; for concentration at 888 h: 888 h after initial dose; for concentration at 1056 h: 1056 h after initial dose; for concentration at 1224 h: 1224 h after initial dose; for concentration at 1440 h: 1440 h after initial dose

O=C(CNC(=O)c1sc(C2=NO[C@@](c3cc(Cl)c(F)c(Cl)c3)(C(F)(F)F)C2)c2c1CCC2)NCC(F)F [mivorilaner, 3-[(5S)-5-(3,5-dichloro-4-fluorophenyl)-5-(trifluoromethyl)-4,5-dihydroisoxazol-3-yl]-N-[2-[(2,2-difluoroethyl)amino]-2-oxoethyl]-5,6-dihydro-4H-cyclopenta[c]thiophene-1-carboxamide]
average plasma concentration of isoxazoline (mivorilaner) ([1]; 168 hr): 6461.67
average plasma concentration of isoxazoline (mivorilaner) ([1]; 240 hr): 8696.67
average plasma concentration of isoxazoline (mivorilaner) ([1]; 336 hr): 11600.00
concentration at 0 h ([2]; Group 2, 0.125 mg/kg/day oral): 0 ng/mL
concentration at 72 h ([2]; Group 2, 0.125 mg/kg/day oral): 136 ng/mL
concentration at 120 h ([2]; Group 2, 0.125 mg/kg/day oral): 213 ng/mL
concentration at 168 h ([2]; Group 2, 0.125 mg/kg/day oral): 244 ng/mL
concentration at 336 h ([2]; Group 2, 0.125 mg/kg/day oral): 384 ng/mL
concentration at 504 h ([2]; Group 2, 0.125 mg/kg/day oral): 404 ng/mL
concentration at 720 h ([2]; Group 2, 0.125 mg/kg/day oral): 420 ng/mL
concentration at 888 h ([2]; Group 2, 0.125 mg/kg/day oral): 448 ng/mL
concentration at 1056 h ([2]; Group 2, 0.125 mg/kg/day oral): 428 ng/mL
concentration at 1224 h ([2]; Group 2, 0.125 mg/kg/day oral): 486 ng/mL
concentration at 1440 h ([2]; Group 2, 0.125 mg/kg/day oral): 898 ng/mL
concentration at 0 h ([2]; Group 3, 0.25 mg/kg/day oral): 0 ng/mL
concentration at 72 h ([2]; Group 3, 0.25 mg/kg/day oral): 283 ng/mL
concentration at 120 h ([2]; Group 3, 0.25 mg/kg/day oral): 450 ng/mL
concentration at 168 h ([2]; Group 3, 0.25 mg/kg/day oral): 579 ng/mL
concentration at 336 h ([2]; Group 3, 0.25 mg/kg/day oral): 883 ng/mL
concentration at 504 h ([2]; Group 3, 0.25 mg/kg/day oral): 878 ng/mL
concentration at 720 h ([2]; Group 3, 0.25 mg/kg/day oral): 1020 ng/mL
concentration at 888 h ([2]; Group 3, 0.25 mg/kg/day oral): 1000 ng/mL
concentration at 1056 h ([2]; Group 3, 0.25 mg/kg/day oral): 945 ng/mL
concentration at 1224 h ([2]; Group 3, 0.25 mg/kg/day oral): 1040 ng/mL
concentration at 1440 h ([2]; Group 3, 0.25 mg/kg/day oral): 999 ng/mL
concentration at 0 h ([2]; Group 4, 0.5 mg/kg/day oral): 0 ng/mL
concentration at 72 h ([2]; Group 4, 0.5 mg/kg/day oral): 474 ng/mL
concentration at 120 h ([2]; Group 4, 0.5 mg/kg/day oral): 763 ng/mL
concentration at 168 h ([2]; Group 4, 0.5 mg/kg/day oral): 888 ng/mL
concentration at 336 h ([2]; Group 4, 0.5 mg/kg/day oral): 1460 ng/mL
concentration at 504 h ([2]; Group 4, 0.5 mg/kg/day oral): 1630 ng/mL
concentration at 720 h ([2]; Group 4, 0.5 mg/kg/day oral): 1870 ng/mL
concentration at 888 h ([2]; Group 4, 0.5 mg/kg/day oral): 1990 ng/mL
concentration at 1056 h ([2]; Group 4, 0.5 mg/kg/day oral): 2010 ng/mL
concentration at 1224 h ([2]; Group 4, 0.5 mg/kg/day oral): 2320 ng/mL
concentration at 1440 h ([2]; Group 4, 0.5 mg/kg/day oral): 2300 ng/mL
concentration at 0 h ([2]; Group 5, 1.0 mg/kg/day oral): 0 ng/mL
concentration at 72 h ([2]; Group 5, 1.0 mg/kg/day oral): 951 ng/mL
concentration at 120 h ([2]; Group 5, 1.0 mg/kg/day oral): 1510 ng/mL
concentration at 168 h ([2]; Group 5, 1.0 mg/kg/day oral): 1790 ng/mL
concentration at 336 h ([2]; Group 5, 1.0 mg/kg/day oral): 2690 ng/mL
concentration at 504 h ([2]; Group 5, 1.0 mg/kg/day oral): 3020 ng/mL
concentration at 720 h ([2]; Group 5, 1.0 mg/kg/day oral): 3760 ng/mL
concentration at 888 h ([2]; Group 5, 1.0 mg/kg/day oral): 3860 ng/mL
concentration at 1056 h ([2]; Group 5, 1.0 mg/kg/day oral): 4260 ng/mL
concentration at 1224 h ([2]; Group 5, 1.0 mg/kg/day oral): 4840 ng/mL
concentration at 1440 h ([2]; Group 5, 1.0 mg/kg/day oral): 4140 ng/mL
